Test results from US6291677A, “Compounds having activity as inhibitors of cytochrome P450RAI” (Allergan Sales, Inc., priority 2000, dated 2001).

Key:
[1] = system: RARα; assay: chimeric receptor transactivation assay, RARα; assay type: cell-based; settings: unit assumed
Excerpt: (§1) Assays described below measure the ability of a compound to bind to, and/or activate various retinoid receptor subtypes. When in these assays a compound binds to a given receptor subtype and activates the transcription of a reporter gene through that subtype, then the compound is considered an agonist of that receptor subtype. […] In the below described assays the ability of the compounds to bind to RARα, RARβ, RARγ,RXRα, RXRβ and RXRγ receptors, and the ability or inability of the compounds to activate transcription of a reporter gene through these receptor subtypes can be tested.
(§2) The results obtained in this assay are expressed in EC50 numbers, as they are also in the chimeric receptor transactivation assay. The results of ligand binding assay are expressed in Kd numbers.

[2] = system: RARβ; assay: chimeric receptor transactivation assay, RARβ; assay type: cell-based; settings: unit assumed
Excerpt: as §1, §2

[3] = system: RARγ; assay: chimeric receptor transactivation assay, RARγ; assay type: cell-based; settings: unit assumed
Excerpt: as §1, §2

[4] = system: skin of hairless mice; assay: topical skin irritation test in hairless mice; assay type: in vivo, female hairless mice (Crl:SKH1-hrBR); settings: once daily days 1 through 5, mean±SD
Excerpt: Mice were housed individually throughout the dosing period.
Doses are disclosed as nmol/25 g.
The grading scale used is as follows:
Values can range from 0-9.
Values can range from 0-8.

[5] = target: T1, P450RAI-1 (Homo sapiens, UniProt O43174); assay: cell-based; settings: intact HeLa, P450RAI-1 stably transfected, [3H]-RA, 3 hours at 37° C; read-out: P450RAI INHIBITION DATA INTACT HELA IC50
T1 sequence (O43174 1-497): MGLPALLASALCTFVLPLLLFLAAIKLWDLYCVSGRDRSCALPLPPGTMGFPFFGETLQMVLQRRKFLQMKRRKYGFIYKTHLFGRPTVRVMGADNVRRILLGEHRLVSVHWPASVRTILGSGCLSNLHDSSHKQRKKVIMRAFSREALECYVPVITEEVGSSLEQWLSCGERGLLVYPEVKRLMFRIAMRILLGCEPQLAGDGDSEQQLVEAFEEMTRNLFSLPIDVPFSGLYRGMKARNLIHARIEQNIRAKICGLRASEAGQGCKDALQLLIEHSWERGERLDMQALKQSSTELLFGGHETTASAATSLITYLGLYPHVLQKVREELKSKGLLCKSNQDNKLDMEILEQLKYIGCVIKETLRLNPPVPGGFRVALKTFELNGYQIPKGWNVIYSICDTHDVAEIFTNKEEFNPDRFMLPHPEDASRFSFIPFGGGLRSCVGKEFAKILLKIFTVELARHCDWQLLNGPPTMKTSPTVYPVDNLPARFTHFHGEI
Experimental: FIG. 1 is a schematic representation of the P450RAI cell based assay utilized to evaluate the ability of the compounds of the invention to inhibit the Cytochrome P450RAI enzyme.
P450RAI-1 Cell-Based Inhibitor Assay:
P450RAI-1 stably transfected HeLa cells are maintained in […] tissue culture dishes in Modified Eagle's Medium (MEM) containing 10% Fetal Bovine Serum (FBS) and 100 μg/ml hygromycin. Exponentially growing cells are harvested by incubating in trypsin. Cells are then washed with 1× Phosphate Buffered Saline (PBS) and plated in a 48-well plate at 5×10^5 cells in 0.2 ml MEM medium containing 10% FBS and 0.05 μCi [^3 H]-RA in the presence or absence of increasing concentrations of the test compounds. The compounds are diluted in 100% DMSO and then added in triplicate wells at either 10, 1 or 0.1 μM final concentration. As a positive control for RA metabolism inhibition, cells are also incubated with ketoconazole at 100, 10 and 1 μM. Cell are incubated for 3 hours at 37° C. […] The water soluble radioactivity is quantified using a β-scintillationcounter. IC50 values represent the concentration of inhibitor required to inhibit all-trans-RA metabolism by 50 percent and are derived manually from log-transformed data.

CN(C1CC1)C1CCC(C)(C)c2cc(C#Cc3ccc(C(=O)O)cc3)ccc21 (stereo not drawn) [Compound 3, 4-[(5-Cyclopropyl-methyl-amino)-8,8-dimethyl-5,6,7,8-tetrahydro-naphthalene-2yl-ethynyl]-benzoic acid]
(EFFICACY) RAR α [1]: 28% | (EFFICACY) RAR β [2]: 54% | (EFFICACY) RAR γ [3]: 52%

CC1(C)CCC(=O)c2ccc(C#Cc3ccc(CC(=O)O)cc3)cc21 [Compound 5, 4-[(8,8-Dimethyl-5-oxo-5,6,7,8-tetrahydro-naphthalene-2-yl-ethynyl)-phenyl]-acetic acid]
(EFFICACY) RAR β [2]: 36% | Cutaneous Toxicity Score (Blackjack Score) ([4]; 100 nmole): 0 | Cutaneous Toxicity Score (Blackjack Score) ([4]; 1000 nmole): 6 ± 3

CC1(C)CCC(=O)c2ccc(C#Cc3ccc(C(=O)O)c(F)c3)cc21 [Compound 10, 2-Fluoro-4-(8,8-dimethyl-5-oxo-5,6,7,8-tetrahydro-naphthalen-2yl-ethynyl)-benzoic acid]
(EFFICACY) RAR α [1]: 146% | (EFFICACY) RAR β [2]: 86% | (EFFICACY) RAR γ [3]: 94%

CN(C1CC1)C1CCC(C)(C)c2cc(C#Cc3ccc(C(=O)O)c(F)c3)ccc21 (stereo not drawn) [Compound 13, 4-[5-(Cyclopropyl-methyl-amino)-8,8-dimethyl-5,6,7,8-tetrahydro-naphthalene-2-yl-ethynyl]-2-fluoro benzoic acid]
(EFFICACY) RAR β [2]: 6.6% | (EFFICACY) RAR γ [3]: 9%

CC1(C)CCC(=O)c2ccc(C#Cc3ccc(CC(=O)O)c(F)c3)cc21 [Compound 15, [2-Fluoro-4-(8,8-dimethyl-5-oxo-5,6,7,8-tetrahydro-naphthalene-2-yl-ethynyl)phenyl]-acetic acid]
Cutaneous Toxicity Score (Blackjack Score) ([4]; 100 nmole): 1 ± 1 | Cutaneous Toxicity Score (Blackjack Score) ([4]; 1000 nmole): 5 ± 2

CN(C1CC1)C1CCC(C)(C)c2cc(C#Cc3ccc(CC(=O)O)c(F)c3)ccc21 (stereo not drawn) [Compound 18, [4-(5-(Cyclopropyl-methyl-amino)-8,8-dimethyl-5,6,7,8-tetrahydro-naphthalene-2-yl-ethynyl)-2-fluoro-phenyl]-acetic acid]
Cutaneous Toxicity Score (Blackjack Score) ([4]; 100 nmole): 0 ± 0 | Cutaneous Toxicity Score (Blackjack Score) ([4]; 300 nmole): 1 ± 1 | Cutaneous Toxicity Score (Blackjack Score) ([4]; 1000 nmole): 10 ± 2

CC1(C)CN(C2CC2)Cc2ccc(C#Cc3ccc(CC(=O)O)c(F)c3)cc21 [Compound 22, [4-(2-Cyclopropyl-4,4-dimethyl-1,2,34-tetrahydro-isoquinolin-6-yl-ethynyl)-2-fluoro-phenyl]-acetic acid]
Cutaneous Toxicity Score (Blackjack Score) ([4]; 100 nmole): 0 ± 0 | Cutaneous Toxicity Score (Blackjack Score) ([4]; 300 nmole): 0 ± 0 | Cutaneous Toxicity Score (Blackjack Score) ([4]; 1000 nmole): 1 ± 1

CC(C)N(C)C1CCC(C)(C)c2cc(C#Cc3ccc(C(=O)O)cc3)ccc21 (stereo not drawn) [Compound 26]
IC50 [5]: 10 µM

CC1(C)CC(C)(C)c2cc(C#Cc3ccc(CC(=O)O)c(F)c3)ccc2O1 [Compound 32, [2-Fluoro-4-(2,2,4,4-tetramethyl-chroman-6-yl-ethynyl)phenyl]acetic acid]
IC50 [5]: 0.13 µM

CC1(C)CC(C)(C)c2cc(C#Cc3ccc(CC(=O)O)cc3)cc(C3CC3)c2O1 [Compound 36, [4-(8-Cyclopropyl-2,2,4,4-tetramethyl-chroman-6-yl-ethynyl)phenyl]acetic acid]
Cutaneous Toxicity Score (Blackjack Score) ([4]; 100 nmole): 1 ± 1 | Cutaneous Toxicity Score (Blackjack Score) ([4]; 1000 nmole): 11 ± 0

CC1(C)CC2(CC2)Oc2ccc(C#Cc3ccc(C(=O)O)cc3)cc21 [Compound 40, Benzoic acid, 4-[(3,4-dihydro-4,4-dimethylspiro[2H-1-benzopyran-2,1'-cyclopropane]-6-yl)ethynyl]-]
(EFFICACY) RAR α [1]: 207% | (EFFICACY) RAR β [2]: 126% | (EFFICACY) RAR γ [3]: 140%

CC1(C)CC2(CC2)Oc2ccc(C#Cc3ccc(C(=O)O)c(F)c3)cc21 [Compound 44, 2-Fluoro-benzoic acid 4-[(3,4-dihydro-4,4-dimethylspiro[2H-1-benzopyran-2,1'-cyclopropane]-6-yl)ethynyl]-]
(EFFICACY) RAR α [1]: 138% | (EFFICACY) RAR β [2]: 100% | (EFFICACY) RAR γ [3]: 116%

CC1(C)CC2(CC2)Oc2c(C3CC3)cc(C#Cc3ccc(CC(=O)O)cc3)cc21 [Compound 48, Benzeneacetic acid, 4-[(8-cyclopropyl-3,4-dihydro-4,4-dimethylspiro[2H-1-benzopyran-2,1'-cyclopropane]-6-yl)ethynyl]-]
Cutaneous Toxicity Score (Blackjack Score) ([4]; 100 nmole): 1 ± 1 | Cutaneous Toxicity Score (Blackjack Score) ([4]; 300 nmole): 3 ± 1 | Cutaneous Toxicity Score (Blackjack Score) ([4]; 1000 nmole): 7 ± 2

CC1(C)CC2(CC2)Oc2c(C3CC3)cc(C#Cc3ccc(CC(=O)O)c(F)c3)cc21 [Compound 50, 4-[(8-Cyclopropyl-3,4-dihydro-4,4-dimethylspiro[2H-1-benzopyran-2,1'-cyclopropane]-6-yl)ethynyl]-2-fluoro-benzeneacetic acid]
Cutaneous Toxicity Score (Blackjack Score) ([4]; 100 nmole): 1 ± 0 | Cutaneous Toxicity Score (Blackjack Score) ([4]; 300 nmole): 3 ± 2 | Cutaneous Toxicity Score (Blackjack Score) ([4]; 1000 nmole): 8 ± 2

CC1(C)CC2(CC2)Oc2c(C3CC3)cc(C(=O)Oc3ccc(CC(=O)O)cc3)cc21 [Compound 58]
Cutaneous Toxicity Score (Blackjack Score) ([4]; 100 nmole): 0 ± 0 | Cutaneous Toxicity Score (Blackjack Score) ([4]; 300 nmole): 0 ± 0 | Cutaneous Toxicity Score (Blackjack Score) ([4]; 1000 nmole): 0 ± 0

COC1(c2ccc(C#Cc3ccc(C(=O)O)cc3)cc2)CC1 [Compound 69, 4-[4-(1-Methoxycyclopropyl)-phenylethynyl]-benzoic acid]
(EFFICACY) RAR α [1]: 10% | (EFFICACY) RAR β [2]: 50% | (EFFICACY) RAR γ [3]: 31%

CC(C)OC1(c2ccc(C#Cc3ccc(C(=O)O)cc3)cc2)CC1 [Compound 73, 4-[4-(1-Isopropoxycyclopropyl)-phenylethynyl]-benzoic acid]
(EFFICACY) RAR β [2]: 39% | (EFFICACY) RAR γ [3]: 24%

Cc1cc(C#Cc2ccc(C(=O)O)cc2)ccc1C1(OCc2ccccc2)CC1 [Compound 81, 4-[4-(1-Benzyloxycyclopropyl)-3-methyl-phenylethynyl]-benzoic acid]
(EFFICACY) RAR β [2]: 80% | (EFFICACY) RAR γ [3]: 67%

Cc1cc(C#Cc2ccc(C(=O)O)cc2)ccc1C1(OC(C)C)CC1 [Compound 85, 4-[4-(1-Isopropoxycyclopropyl)-3-methyl-phenylethynyl]-benzoic acid]
(EFFICACY) RAR α [1]: 60% | (EFFICACY) RAR β [2]: 77% | (EFFICACY) RAR γ [3]: 65%

Cc1cc(C#Cc2ccc(C(=O)O)cc2)ccc1C1(OCC(C)(C)C)CC1 [Compound 89, 4-[4-[1-(2,2-Dimethylpropyloxy)-cyclopropyl]-3-methyl-phenylethynyl]-benzoic acid]
(EFFICACY) RAR α [1]: 20% | (EFFICACY) RAR β [2]: 50% | (EFFICACY) RAR γ [3]: 46%

CCc1cc(C#Cc2ccc(C(=O)O)cc2)ccc1C1(OCc2ccccc2)CC1 [Compound 93, 4-[4-(1-Benzyloxycyclopropy)-3-ethyl-phenylethynyl]-benzoic acid]
(EFFICACY) RAR α [1]: 114% | (EFFICACY) RAR β [2]: 39% | (EFFICACY) RAR γ [3]: 55%

CCCNC1(c2ccc(C#Cc3ccc(C(=O)O)cc3)cc2)CC1 [Compound 108, 4-[4-(1-Propylamino-cyclopropyl)-phenylethynyl]-benzoic acid]
(EFFICACY) RAR α [1]: 15% | (EFFICACY) RAR β [2]: 36% | (EFFICACY) RAR γ [3]: 10%

CCCN(CCC)C1(c2ccc(C#Cc3ccc(C(=O)O)cc3)cc2)CC1 [Compound 110, 4-[4-(1-Dipropylamino-cyclopropyl)-phenylethynyl]-benzoic acid]
(EFFICACY) RAR β [2]: 44% | (EFFICACY) RAR γ [3]: 42%

O=C(O)c1ccc(C#Cc2ccc(C3(NCc4ccccc4)CC3)cc2)cc1 [Compound 112]
(EFFICACY) RAR β [2]: 37%

CC1(C)CCC(n2ccnc2)c2ccc(C#Cc3ccc(CC(=O)O)cc3)cc21 (stereo not drawn) [Compound 137, [4-(5-Imidazol-1-yl-8,8-dimethyl-5,6,7,8-tetrahydro-naphthalen-2-yl-ethynyl)-phenyl]-acetic acid]
Cutaneous Toxicity Score (Blackjack Score) ([4]; 100 nmole): 1 ± 1 | Cutaneous Toxicity Score (Blackjack Score) ([4]; 300 nmole): 1 ± 1 | Cutaneous Toxicity Score (Blackjack Score) ([4]; 1000 nmole): 5 ± 2
